{
  "source": "patent US20040166559A1",
  "about": "“Vectors for gene therapy” (priority 2001, published 2004)",
  "key": {"[1]": {"tested_on": "primary T-cells", "assay": "GCV sensitivity of G1Tk1SvNa transduced primary T-cells following G418 selection", "type": "cell-based, human", "details": "n=12", "experimental": "Transduction of donor T-cells with the G1Tk1SvNa retroviral vector was as previously described (Robinet et al (1998) J. Hematother. 7, 205-215). PBMNC were cultured for 3 days with OKT3 (10 ng, Ortho) and rhIL-2 (500 U/mL, Chiron). Infection with retroviral supernatant for 24 hours was followed by G418 (800 μg/mL, Sigma) selection of transduced cells for 7 days. Dead cells were removed and the viable transduced product was cryopreserved for future use. The transduction of CEM cells with the G1Tk1SvNa vector involved identical infection conditions to those described for the SFCMM3 vector, followed by selection in G418 (800 μg/ml) for 7-14 days.\nThe transduction efficiency of primary T-cells with G1Tk1SvNa prior to G418 selection, as measured by quantitative PCR for Neo^R, was 8.3±1.4% (n=12). The GCV sensitivity of these cells following G418 selection was 87±1.2% (n=12). The relative cell growth of control and transduced cells from one representative transduction/selection experiment is shown in FIG. 16."}, "[2]": {"tested_on": "TK-CEM sub-clones", "assay": "Ganciclovir cytotoxic assay (3H-thymidine incorporation)", "type": "cell-based, human", "details": "for IC50: Homo sapiens", "experimental": "Cells were incubated for 4 days in the presence of increasing concentration of GCV (range from 0.05 to 12.5 μg/mL). Cell proliferation was measured by the incorporation of ^3H— thymidine into the cell DNA. Results are expressed as percentage of incorporated ^3H-thymidine at each GCV concentration respect to the incorporation obtained in the absence of GCV. (♦) non-transduced CEM cells and (▪) SFCMM 3 transduced TK-CEM sub-clones.\nGanciclovir Cytotoxic Assay\nA total of 2×10^4 cells/well were seeded into a 96-well plate in 100 μL of medium. Cells were cultured for 4 days with increasing concentrations (from 0.05 to 12.5 μg/mL) of GCV (Cymevene®, Hoffman-La Roche A G, Germany). Afterwards, 1 μCi/well of tritiated thymidine (methyl ^3H-thymidine, TRA.120, 1.0 MBq/mL, Amersham International, England) was added 18 h. before harvesting the cell DNA in a cell harvester (Wallac, Gaitherburg, Md.). The incorporation of ^3H-thymidine into the DNA was measured in a β-scintillation counter (Wallac 1410, aitherburg, Md.). All GCV concentrations were tested in triplicate esults are expressed as percentage of incorporated ^3H-thymidine at each GCV concentration with respect to the incorporation obtained in the absence of GCV.\nThe expression of the HSV-TK transgene m the TK-CEM sub-clones was determined by the inhibition in cell proliferation when the cells were cultured at increasing concentrations of GCV."}, "[3]": {"tested_on": "transduced donor cells", "details": "one patient with chronic GvHD; declined from 11.9%; cited from earlier work"}, "[4]": {"tested_on": "T cell lines and primary T cells", "assay": "GCV sensitivity of T cell lines and primary T cells transduced with corrected or non-corrected HSV-Tk vectors", "type": "cell-based, human", "details": "inhibition of cell viability", "excerpt": "FIG. 18. GCV sensitivity of T cell lines and primary T cells transduced with corrected or non-corrected HSV-Tk vectors. GCV sensitivity of Hut-78 (A) and CEM (B) cell line transduced with corrected SF/Tk/mut (?) or non-corrected vector G1Tk1SVNa (◯) or SF/Tk/wt (Δ) compared to untransduced T-cell lines (▪). The data represents the inhibition of cell viability and are the mean±SD of 8 and 3 different independent experiments, for CEM and Hut-78 cell lines respectively. (C) GCV sensitivity of primary T cells transduced with corrected sc-SFCMM3 (Δ) or non corrected SFCMM3 vectors (?) compared to untransduced T cells (▪).\nPrimary T cells and the T cell lines, HuT78 (ATCC TIB-161) and CEM (ATCC CRL 2265)] were transduced with G1Tk1SVNa, SF/Tk/wt, SF/Tk/mut, SFCMM3 or scSFCMM3 vectors. HSV-Tk PCR (as described in^7) was performed on transduced target cells. In addition, PCR was performed using primers which selectively amplified the deleted form of the HSV-Tk gene using a 5′ primer, which spans the truncation point [TrTk1: 5′CTCGACCAGG§GCCGTGCT. (§ denoting the junction) and the previously described RTk2 3′ primer^7. Splicing from the transduced cell lines was quantified as described.^7"}, "[5]": {"tested_on": "circulating transduced T-cells", "assay": "Clinical study: transduced donor T-cells with T cell depleted bone marrow, GCV treatment of GvHD", "type": "in vivo, human", "excerpt": "Escalating amounts of CD3^+ gene-modified cells were infused with T cell depleted bone marrow. Twelve patients with hematological malignancies received 2×10^5 (n=5), 6×10^5 (n=5) or 20×10^5 (n=2) transduced donor CD3^+ cells/kg with bone marrow from an HLA-identical sibling. Acute toxicity was not observed. […] Three patients developed acute GvHD grade≧II while 1 patient developed chronic GvHD (skin and salivary glands). […] In patients receiving GCV, blood samples for detection of gene-modified cells expressing the wild-type or truncated form of the HSV-Tk gene were harvested prior to GCV treatment and a regular two weeks intervals."}, "[6]": {"details": "patients, GCV treatment for GvHD, quantitative PCR of the NeoR gene"}},
  "note": "Read-outs that look alike come from different tables or passages of the source.",
  "data": [
    {"compound": "Nc1nc(O)c2ncn(COC(CO)CO)c2n1", "note": "[GCV]", "values": [
      {"measurement": "GCV sensitivity", "setting": "[1]", "value": "87±1.2", "unit": "%"},
      {"measurement": "IC50", "setting": "[2]; 96 h, TK-CEM clones #6 and #10, 4 days with GCV, read-out: concentration of GCV to achieve the 50% inhibition in cell proliferation", "value": 0.25, "unit": "µg/mL"},
      {"measurement": "IC50", "setting": "[2]; read-out: IC50 inhibition in cell proliferation assessed by the incorporation of 3H-thymidine", "value": 0.1, "unit": "µg/mL"},
      {"measurement": "cell proliferation at increasing concentrations of GCV", "setting": "[2]; TK-CEM clones #1, #2, #4, #5, #7 and #14", "value": "parallel to that obtained in the non-transduced cells"},
      {"measurement": "complete inhibition in cell proliferation", "setting": "[2]; TK-CEM clones #6 and #10, GCV increased up to 12.5 μg/mL", "value": "not completely achieved"},
      {"measurement": "proportion of transduced donor cells after administration of GCV", "setting": "[3]", "value": 2.8, "unit": "%"},
      {"measurement": "GCV sensitivity of cells expressing the mutated HSV-Tk gene compared to populations transduced by wild-type gene", "setting": "[4]", "value": "only marginally increased"},
      {"measurement": "change in circulating transduced T-cells", "setting": "[5]; patients receiving ganciclovir", "value": "significant rapid decrease"},
      {"measurement": "reduction of absolute number of circulating transduced T-cells", "setting": "[5]; [6]", "value": "76-99.5%"},
      {"measurement": "reduction of percentage of circulating transduced T-cells", "setting": "[5]; [6]", "value": "85-98%"},
      {"measurement": "outcome of chronic GvHD", "setting": "[5]; the patient with chronic GvHD (skin and salivary glands)", "value": "Long-lasting CR"},
      {"measurement": "outcome of acute GvHD", "setting": "[5]; treatment with GCV alone, three patients had acute GvHD grade ≧II", "value": "complete remission (CR) in 2 patients"}
    ]}
  ]
}
